# Source: paper PMC12040169 (PLOS Biology, 2025)
# Assay: in vitro
# Details: human, hela cells, % viability
row,Compound,"viability at 28.5 h, 10 µM [%]"
1,CC(C)NC(=O)CCNc1ncc(C(N)=O)cc1Cl [CBK306373],92.9
2,Cc1nn(C)c(N2CCNCC2)c1NC(=O)c1cccn1C [CBK050309T],94.8
3,Cc1[nH]c2c(C(=O)Nc3cccc(CN4CCOC4=O)c3)cccc2c1C [CBK298338],90.3
4,CC(C)CNCC1CC(C(=O)N2CCC(Cc3ccccc3)CC2)=NO1 (stereo not shown) [CBK003718C],89.7
5,CCOC(=O)COc1cccc(/C=C2/SC(=S)N(c3cccc(C(=O)O)c3)C2=O)c1 [CBK265589],98.3
6,COC(=O)c1ccc(NC(=O)Cn2nnc(-c3ccc(CN4CCOCC4)cc3)n2)cc1 [CBK134589],95.4
7,CCOc1ccc(CN(C)C(C)C(=O)Nc2cc(C)no2)cc1 (stereo not shown) [CBK305607],96.6
8,CCOC(=O)CCNC(=O)c1cncc(-c2ccc(C(=O)N3CCOCC3)cc2)c1 [CBK158645],92.6
9,O=C(NCc1cccc2ccccc12)c1ccccc1-n1cccc1 [CBK149585],99.8
10,CN1C2CCC1CC(OC(=O)CCN1CCOCC1)C2 (stereo not shown) [CBK261465],97.4
11,Cc1ccc(Oc2ccc(C(=O)NCC(=O)O)cc2)cc1C [CBK286570],84.5
12,COc1ccc(CN2CCCN(C(=O)c3ccc(C#N)cc3)CC2)cc1 [CBK305273],91.4
13,CC(C)Nc1nccnc1SCCN(C)C [CBK105290],92.1
14,COc1ccc(OC)c(-c2nc(Nc3ccccc3Cl)sc2CC(=O)O)c1 [CBK264190],96.4
15,CCCn1c(NC(=O)C2CCCN2S(=O)(=O)CC)nc2ccccc21 (stereo not shown) [CBK295624],96.8
16,O=C(N1CCOCC1)N1CCN(c2cncc(-c3ccc(O)cc3)n2)CC1 [CBK126946T],96.6
17,Cc1cc(NC(=O)c2ccccc2)nc2c1c(=O)oc1ccccc12 [CBK291126],113
18,COc1ccccc1N1CCN(CCNC(=O)Nc2cccc(C)c2C)CC1 [CBK266839],90.2
19,O=S(=O)(Nc1cc(O[C@@H]2CCNC2)c2occc2c1)c1ccccc1Br [CBK200020C],89.6
20,CCOC(=O)c1ccc(NC(=O)C2CC(=O)NC(Nc3nc4ccccc4s3)=N2)cc1 (stereo not shown) [CBK264396],100
21,O=C(Cn1ccc2ccnc(-c3cccs3)c21)N1CCNCC1 [CBK284733],90.9
22,O=C1CCC(=O)N1CCOc1nccnc1OC1CCN(CC2CCCCC2)CC1 [CBK084357],105

row,Compound,"viability at 28.5 h, 10 µM [%]"
1,COc1cccc(NC(=O)c2ccc(-c3cc(C(F)(F)F)cc(C(F)(F)F)c3)nc2N(C)C)c1 [CBK106028],119
2,COc1cccc(NC(=O)C2CCCCC2C(=O)O)c1 (stereo not shown) [CBK262410],93.1
3,COc1ccc(Cn2nnnc2C(CC(C)C)N2CCC(C(N)=O)CC2)cc1 (stereo not shown) [CBK084783],90
4,Cc1ccc(S(=O)(=O)Nc2nnc(C)s2)cc1 [CBK045486],92.5
5,CC1(C)CC(=O)c2sc(NC(=O)c3ccccc3)nc2C1 [CBK287318],85.6
6,CC(=O)Nc1ccc(S(=O)(=O)Nc2ccc(C(=O)Nc3ccc(F)cc3)cc2)cc1 [CBK050401],111
7,COc1ccc(Cn2c(=O)n(S(=O)(=O)c3ccc(C)cc3)c3ccccc32)cc1 [CBK106550],95.1
8,O=C(CCN1C(=O)c2ccccc2C1=O)N1CCOCCOCCN(C(=O)CCN2C(=O)c3ccccc3C2=O)CCOCCOCC1 [CBK260964],89.9
9,O=C1NCCNC(=O)C2(CCCCOc3ccccc31)CCN(C(=O)c1ccnnc1)CC2 [CBK292105],107
10,O=C(C1CCCC1)N1CCC(n2nc(-c3cccs3)oc2=O)CC1 [CBK282424],87.5
11,Oc1cccc2ccc(/C=C/c3ccc(-c4ccccc4Cl)o3)nc12 [CBK264445],97.7
12,Cc1ccc(C)c(C(C)NC(=O)C2CCCN(S(C)(=O)=O)C2)c1 (stereo not shown) [CBK304672],96.6
13,O=C(CN1CCCCC1Cn1cccn1)NCc1ccccn1 (stereo not shown) [CBK306146],84
14,COc1ccc(-c2ccccc2NC(=O)c2ccc(Cn3cnnn3)cc2)cc1 [CBK285866],96.4
15,CCOC(=O)C(C)n1nc(C)n2c(cc3sc(C)cc32)c1=O (stereo not shown) [CBK284066],76.8
16,NCc1ccc(CN(Cc2cnc(-c3ccccc3)[nH]2)C(=O)Nc2ccc3c(c2)OCO3)cc1 [CBK046158C],89
17,c1nncn1/N=C1/CCCc2nonc21 [CBK261065],91.8
18,OCCOc1ccccc1-c1cc[nH]n1 [CBK001973],104
19,O=c1[nH]nc2cc(SCc3ccc(Cl)cc3)ncn12 [CBK300540],107
20,CCN(CC)CCN1CCN(c2cc(-c3cc(C(F)(F)F)cc(C(F)(F)F)c3)ncn2)CC1 [CBK091195],94
21,Cn1cc(CNS(=O)(=O)c2ccc(F)c(Br)c2)cn1 [CBK305174],92.5
